Data on twelve molecules can be found in article PMC4070716 (Journal of Medicinal Chemistry, 2014).

“Also recorded” adds a separate entry of the source. Read-outs that look alike come from different tables or passages of the source. Marks after values point to notes of the source that are not given here.

For one experiment, the system named is κ receptor. As to conditions: mouse writhing test, κ antagonism; cited from earlier work. In general terms: An intraperitoneal irritant provokes the stretching counted in writhing tests.
The target of experiment [1] is T1, human δ opioid receptor (Homo sapiens, UniProt P41143). As to the kind of experiment: [35S]GTPγS binding assay, intrinsic. It counts as biochemical. (Binding of GTPγS marks nucleotide exchange on a G protein.)
T1 sequence (P41143 whole entry): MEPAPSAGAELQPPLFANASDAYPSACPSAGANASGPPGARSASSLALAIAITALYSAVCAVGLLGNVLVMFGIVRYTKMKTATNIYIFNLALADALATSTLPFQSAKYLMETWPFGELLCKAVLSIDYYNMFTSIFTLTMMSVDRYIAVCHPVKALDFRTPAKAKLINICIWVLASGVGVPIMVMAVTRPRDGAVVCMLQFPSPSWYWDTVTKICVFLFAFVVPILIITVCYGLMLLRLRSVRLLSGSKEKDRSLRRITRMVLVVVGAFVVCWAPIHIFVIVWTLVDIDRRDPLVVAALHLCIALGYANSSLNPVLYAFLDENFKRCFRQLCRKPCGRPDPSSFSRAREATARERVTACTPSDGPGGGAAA
For experiment [2], the system named is opioid receptor. Conditions: cited from earlier work.
Another experiment has as its system μ receptor. As to conditions: mouse writhing test, μ antagonism; cited from earlier work.
Experiment [3] addresses T1, human δ opioid receptor. Conditions: cloned human δ receptor; data taken from ref 15; cited from earlier work.
For experiment [4], the target named is T2, human μ opioid receptor (Homo sapiens, UniProt P35372). In words: [35S]GTPγS binding assay, intrinsic. It counts as biochemical.
T2 sequence (P35372 whole entry): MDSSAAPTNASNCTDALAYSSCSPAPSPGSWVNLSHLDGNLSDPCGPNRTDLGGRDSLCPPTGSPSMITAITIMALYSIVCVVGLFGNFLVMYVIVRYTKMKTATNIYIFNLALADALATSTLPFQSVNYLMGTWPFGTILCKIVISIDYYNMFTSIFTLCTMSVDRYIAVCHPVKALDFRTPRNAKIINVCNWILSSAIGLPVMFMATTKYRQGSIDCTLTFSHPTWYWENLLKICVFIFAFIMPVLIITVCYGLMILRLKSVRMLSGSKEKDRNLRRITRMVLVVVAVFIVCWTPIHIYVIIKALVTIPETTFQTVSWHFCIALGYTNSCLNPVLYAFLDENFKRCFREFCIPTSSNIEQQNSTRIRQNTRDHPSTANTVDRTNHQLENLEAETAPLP
The test system of experiment [5] is opioid receptor. Conditions: cited from earlier work. This is another data set of the same source.
In experiment [6] the target is T3, human κ opioid receptor (Homo sapiens, UniProt P41145). As to the kind of experiment: Inhibition of U69,593-stimulated [35S]GTPγS binding. The class given is biochemical. Conditions: for fold more potent antagonist than N-methyl counterpart, κ receptor: ratio of Ke values (a vs b analogue).
T3 sequence (P41145 whole entry): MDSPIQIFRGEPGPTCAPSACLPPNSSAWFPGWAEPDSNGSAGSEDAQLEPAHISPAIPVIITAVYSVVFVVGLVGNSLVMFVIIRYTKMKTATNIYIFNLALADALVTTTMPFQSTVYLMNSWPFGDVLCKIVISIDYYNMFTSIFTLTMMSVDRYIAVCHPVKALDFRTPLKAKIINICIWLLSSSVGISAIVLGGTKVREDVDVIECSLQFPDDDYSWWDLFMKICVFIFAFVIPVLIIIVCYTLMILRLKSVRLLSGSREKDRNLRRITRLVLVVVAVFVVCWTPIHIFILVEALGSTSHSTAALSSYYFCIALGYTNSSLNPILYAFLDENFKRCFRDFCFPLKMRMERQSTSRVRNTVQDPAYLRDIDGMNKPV
The target of experiment [7] is T3, human κ opioid receptor. In words: [35S]GTPγS binding assay, intrinsic. The class given is biochemical.
The target of experiment [8] is T2, human μ opioid receptor. As to conditions: cloned human μ receptor; data taken from ref 15; cited from earlier work.
Experiment [9] concerns the target T1, human δ opioid receptor. As to the kind of experiment: Inhibition of DPDPE-stimulated [35S]GTPγS binding. The class given is biochemical. Conditions: for Ke (nM) δ, DPDPE: cloned human δ receptor in CHO cells, mean ± SE, at least three experiments.
The target of experiment [10] is T2, human μ opioid receptor. As to the kind of experiment: Inhibition of DAMGO-stimulated [35S]GTPγS binding. It counts as biochemical. As to conditions: for fold more potent antagonist than N-methyl counterpart, μ receptor: ratio of Ke values (a vs b analogue).

With `C[C@H]1CN(C)CC[C@@]1(C)c1cccc(O)c1` [Compound 2a, 3-[(3R,4R)-1,3,4-Trimethylpiperidin-4-yl]phenol], the “AD50, antagonist of U50,488-induced antinociception” value in the experiment on κ receptor was greater than 5.0 mg/kg. The “agonist activity at 10 μM, δ receptor” value on human δ opioid receptor [1] is recorded as “no opioid agonist efficacy”. Besides, in the experiment on opioid receptor [2], the “opioid receptor agonist activity in the rat tail heat analgesic test” value is “did not have any opioid receptor agonist activity”. Further, the “AD50, antagonist of morphine-induced antinociception” value in the experiment on μ receptor is recorded as 0.74 mg/kg. Besides, the “Ke (nM) δ, DPDPE” value on human δ opioid receptor [3] was 681 ± 241 ^b nM. Moreover, the “agonist activity at 10 μM, μ receptor” value at human μ opioid receptor [4] is listed as “no opioid agonist efficacy”. For the same molecule, in the experiment with opioid receptor [5], the “opioid receptor agonist activity in the mouse writhing test” value is reported as “did not have any opioid receptor agonist activity”. This molecule also gave a Kb on human κ opioid receptor [6] of 134 ± 27.1 nM. Besides, on human κ opioid receptor [7], the “agonist activity at 10 μM, κ receptor” value was “no opioid agonist efficacy”. The “Ke (nM) μ, DAMGO” value on human μ opioid receptor [8] is 29.3 ± 3.4 ^b nM.

Turning to `C[C@H]1CN(CCCc2ccccc2)CC[C@@]1(C)c1cccc(O)c1` [Compound 2b, 3-[(3R,4R)-3,4-Dimethyl-1-(3-phenylpropyl)piperidin-4-yl]phenol], the “AD50, antagonist of morphine-induced antinociception” value with μ receptor is listed as 0.28 mg/kg. In addition, on human δ opioid receptor [3], the “Ke (nM) δ, DPDPE” value was 0.9 ± 0.32 ^b nM. Moreover, on human κ opioid receptor [6], the Kb was 0.88 ± 0.17 nM. For the same molecule, the “Ke (nM) μ, DAMGO” value at human μ opioid receptor [8] was 0.1 ± 0.02 ^b nM.

Regarding `C[C@H]1CN(C)CCN1c1cccc(O)c1` [Compound 4a, 3-[(2S)-2,4-Dimethylpiperazin-1-yl]phenol], the “agonist activity at 10 μM, δ receptor” value on human δ opioid receptor [1] is reported as “no opioid agonist efficacy”. In addition, the “agonist activity at 10 μM, μ receptor” value on human μ opioid receptor [4] is “no opioid agonist efficacy”. Further, the “Ke (nM) δ, DPDPE” value on human δ opioid receptor [9] was “no antagonism; also recorded: IA ^d”. Also, the “agonist activity at 10 μM, κ receptor” value on human κ opioid receptor [7] was “no opioid agonist efficacy”.

Consider `C[C@H]1CN(CCCc2ccccc2)CCN1c1cccc(O)c1` [Compound 4b, 3-[(2S)-2-Methyl-4-(3-phenylpropyl)piperazin-1-yl]phenol], for which the “agonist activity at 10 μM, δ receptor” value on human δ opioid receptor [1] is given as “no opioid agonist efficacy”. Besides, the “agonist activity at 10 μM, μ receptor” value on human μ opioid receptor [4] was “no opioid agonist efficacy”. Besides, at human κ opioid receptor [7], the “agonist activity at 10 μM, κ receptor” value was “no opioid agonist efficacy”.

Regarding `CC1CN(C)CCC1c1cccc(O)c1` (stereo not drawn) [Compound 5a, 3-(1,3-Dimethylpiperidin-4-yl)phenol], the values for the Kb at human μ opioid receptor [10] and on human κ opioid receptor [6] were 1250 ± 423 nM and 1310 ± 447 nM, respectively.

Turning to `CC1CN(CCCc2ccccc2)CCC1c1cccc(O)c1` (stereo not drawn) [Compound 5b, 3-[3-Methyl-1-(3-phenylpropyl)piperidin-4-yl]phenol], the “agonist activity at 10 μM, δ receptor” value at human δ opioid receptor [1] is listed as “no agonist efficacy”. Moreover, the “agonist activity at 10 μM, μ receptor” value at human μ opioid receptor [4] is given as “no agonist efficacy”. The molecule further gave a Kb on human δ opioid receptor [9] of 46 ± 18 nM. For the same molecule, on human μ opioid receptor [10], the Kb is 11.9 ± 2 nM and the “fold more potent antagonist than N-methyl counterpart, μ receptor” value was 105 fold. Besides, on human κ opioid receptor [6], the Kb was 16.5 ± 5 nM and the “fold more potent antagonist than N-methyl counterpart, κ receptor” value is 79 fold. Further, the “agonist activity at 10 μM, κ receptor” value on human κ opioid receptor [7] is listed as “no agonist efficacy”.

`CN1CCC(C)(c2cccc(O)c2)CC1` [Compound 6a, 3-(1,4-Dimethylpiperidin-4-yl)phenol]: the EC50 at human δ opioid receptor [1] amounted to 8300 nM. The “Ke (nM) δ, DPDPE” value on human δ opioid receptor [9] was “agonist ^c”. Also, the Kb on human μ opioid receptor [10] turned out to be 974 ± 230 nM; at human κ opioid receptor [6] it was 477 ± 150 nM.

`CC1(c2cccc(O)c2)CCN(CCCc2ccccc2)CC1` [Compound 6b, 3-[4-Methyl-1-(3-phenylpropyl)piperidin-4-yl]phenol]: the “agonist activity at 10 μM, δ receptor” value on human δ opioid receptor [1] is recorded as “no agonist efficacy”. Further, the “agonist activity at 10 μM, μ receptor” value on human μ opioid receptor [4] is “no agonist efficacy”. Besides, the Kb at human δ opioid receptor [9] came out at 178 ± 47 nM; on human μ opioid receptor [10], 5.5 ± 0.59 nM; on human κ opioid receptor [6], 21.3 ± 9 nM. Besides, at human μ opioid receptor [10], the “fold more potent antagonist than N-methyl counterpart, μ receptor” value amounted to 177 fold. Also, on human κ opioid receptor [6], the “fold more potent antagonist than N-methyl counterpart, κ receptor” value is on record as 22 fold. For the same molecule, the “agonist activity at 10 μM, κ receptor” value at human κ opioid receptor [7] is “no agonist efficacy”.

For `CN1CCC(c2cccc(O)c2)CC1` [Compound 7a, 3-(1-Methylpiperidin-4-yl)phenol], the “agonist activity at 10 μM, δ receptor” value at human δ opioid receptor [1] is recorded as “no agonist activity”. For the same molecule, the “agonist activity at 10 μM, μ receptor” value on human μ opioid receptor [4] is listed as “no agonist activity”. In addition, the “Ke (nM) δ, DPDPE” value at human δ opioid receptor [9] is “inactive; also recorded: no antagonist properties; also recorded: IA ^d”. Further, at human μ opioid receptor [10] (cloned human μ receptor in CHO cells, mean ± SE, at least three experiments), the “Ke (nM) μ, DAMGO” value was “inactive; also recorded: no antagonist properties; also recorded: IA ^d”. For the same molecule, the Kb at human κ opioid receptor [6] is 2700 ± 1300 nM. Further, at human κ opioid receptor [7], the “agonist activity at 10 μM, κ receptor” value is recorded as “no agonist activity”.

For `Oc1cccc(C2CCN(CCCc3ccccc3)CC2)c1` [Compound 7b, 3-[1-(3-Phenylpropyl)piperidin-4-yl]phenol], on human δ opioid receptor [1], the “agonist activity at 10 μM, δ receptor” value is reported as “no agonist efficacy”. Also, at human μ opioid receptor [4], the “agonist activity at 10 μM, μ receptor” value is listed as “no agonist efficacy”. Further, the Kb on human δ opioid receptor [9] is 418 ± 120 nM; on human μ opioid receptor [10], 75.6 ± 21 nM; at human κ opioid receptor [6], 5.8 ± 2 nM. The “agonist activity at 10 μM, κ receptor” value on human κ opioid receptor [7] was “no agonist efficacy”.

As for `CN1CCN(c2cccc(O)c2)CC1` [Compound 8a, 3-(4-Methylpiperazin-1-yl)phenol], on human δ opioid receptor [1], the “agonist activity at 10 μM, δ receptor” value is “no opioid agonist efficacy”. Also, the “agonist activity at 10 μM, μ receptor” value on human μ opioid receptor [4] is given as “no opioid agonist efficacy”. Moreover, the Kb stood at 1600 ± 480 nM at human δ opioid receptor [9] and 4300 ± 1700 nM on human μ opioid receptor [10]. For the same molecule, the “agonist activity at 10 μM, κ receptor” value at human κ opioid receptor [7] is “no opioid agonist efficacy”.

Regarding `Oc1cccc(N2CCN(CCCc3ccccc3)CC2)c1` [Compound 8b, 3-[4-(3-Phenylpropyl)piperazin-1-yl]phenol], the “agonist activity at 10 μM, δ receptor” value at human δ opioid receptor [1] is “no opioid agonist efficacy”. In addition, the “agonist activity at 10 μM, μ receptor” value at human μ opioid receptor [4] is reported as “no opioid agonist efficacy”. Also, the “fold more potent antagonist than N-methyl counterpart, δ receptor” value at human δ opioid receptor [9] (ratio of Ke values (a vs b analogue)) stood at 47 fold. The “fold more potent antagonist than N-methyl counterpart, μ receptor” value at human μ opioid receptor [10] stood at 507 fold. Besides, the Kb on human κ opioid receptor [6] turned out to be 36.8 ± 16.8 nM. The “agonist activity at 10 μM, κ receptor” value on human κ opioid receptor [7] is “no opioid agonist efficacy”.

Broadly, the EC50 is the concentration at which the effect is half-maximal. Read a high EC50 as weaker potency.
